Reference: patent US12121540B2, “CBL inhibitors and compositions for use in adoptive cell therapy” (Nurix Therapeutics, Inc., priority 2019, dated 2024)

What was measured:
[1] = test system: TIL from human ovarian, colon and breast cancer tissues; test: Phenotype of TIL expanded in 24 well or GREX10 format (flow cytometry); format: cell-based
Procedure: Initial studies involved TIL expansion with ovarian and CRC tumor tissues (average about 0.5-0.8 g). These were fragmented into multiple pieces (approximately 2 mm^3 in size), and one fragment was added per 24 well plate. […] The wells were then pooled by treatment and total cell numbers were assessed by flow cytometry. Following TIL expansion the phenotypes of the cells were characterized. They were majority CD45RO+ and CD4+ and CD8+.
TIL directly derived from fresh ovarian and colon cancer tissues (fresh, n=8) obtained after 28 days' ex vivo culture of cancer tissue fragments were analyzed by flow cytometry. FIG. 24 provides FACS data showing percentages of central memory(CD45RO+CCR7+) and effector memory (CD45RO+CCR7−) phenotype among CD8+CD45RO+, respectively. FACS results expressed as the mean±SEM. Statistical significance calculated using two-tailed Wilcoxon signed-rank test (*, p<0.05). The CD8 T cells were further characterized by assessing T cell differentiation phenotypic markers; CCR7 and CD45RO. […] This indicates the expansion of a less differentiated, persistent T cell.
TIL directly derived from fresh ovarian, colon and breast cancer tissues (fresh, n=7) obtained after 14 days' ex vivo culture of cancer tissue fragments were analyzed by flow cytometry. FIG. 26 provides FACS data showing percentages of central memory […] phenotype among CD8+CD45RO+, respectively. FACS results were expressed as the mean±SEM.

[2] = test system: human tumor-infiltrating lymphocytes (TIL); test: Ex vivo expansion of TIL from human tumor fragments (pre-REP); format: cell-based; details: for Expansion of TIL, total cell number relative to IL-2 alone: day 17
Procedure: Samples of human ovarian and colon tumors were obtained from the Cooperative Human Tissue Network (CHTN, c/o Vanderbilt University Medical Center, Nashville, TN). Solid tumor specimens were carefully dissected free of surrounding fatty and necrotic areas. The tumors were sliced into 8 mm^3 (2×2×2 mm^3) fragments under sterile conditions using a scalpel and a scalpel holder.
(§1) The plates were placed in a humidified 37° C. incubator with 5% CO2. Half of the medium was replaced every two days after culture initiation. […] Subsequently, half the media was replaced thrice weekly, cultures were split to maintain a cell density of 1×10^6 cells/mL. […] Mitochondrial markers including, Mitotracker, Mitoprobe, and 2-NBDG may also be used to assess differentiation and/or activation of cells.

breast TIL = test: CDR3 diversity of expanded breast TIL (iRepertoire sequencing); format: cell-based, human; details: compound 103 alone or with high dose IL-2; 14 days in GREX10
Procedure: TIL were cultured for 14 days in GREX10. […] The raw data were analyzed by iRepertoire using IRmap programs with a modified Smith-Waterman algorithm. Using CDR3 algerbra software, the calculation of shared CDR3s across samples with the indicated treatment was assessed. […] All CDR3 frequencies were scaled to 10 million reads to account for differences in read depth among samples. Data was normalized so that each uCDR3-VDJ combination was treated as a quantity of 1 regardless of read count, and then analyzed for V usage and J usage.

OT-1 cells = test: Re-stimulation of harvested splenocytes with OVA Class I peptide; format: cell-based, mouse
Procedure: The expanded OT-1 cells were characterized by FACS analysis and transferred into E.G7-OVA mice, which bear ovalbumin (OVA) expressing tumors. Following in vivo transfer of expanded OT-1 cells, antitumor response was monitored over time and the quality and quantity of immune response was assessed at various time points. Analysis included FACS analysis on blood, tumor, and spleen samples. Analysis also included re-stimulation of splenocytes with OVA Class I peptide to evaluate the multifunctionality of the antigen-specific effector T cells.
Expanded OT-1 cells were assessed from splenocytes 11 days after transfer. Harvested splenocytes were re-stimulated with OVA Class I peptide for 72 hours.
Expanded OT-1 cells were assessed from splenocytes 11 days after transfer. Harvested splenocytes were re-stimulated with OVA Class I peptide for 4 hours.
Expanded OT-1 cells were assessed from splenocytes 11 days after transfer. Harvested splenocytes were re-stimulated with OVA Class I peptide for 24 hours.

[3] = test system: human tumor-infiltrating lymphocytes (TIL); test: Flow cytometry immunophenotyping of expanded TIL; format: cell-based; details: for CD4 TCM CD62L+ CCR7+, percentage of total TIL cell number / CD4 TEM CD62L− CCR7−, percentage of total TIL cell number / CD8 TCM CD62L+ CCR7−, percentage of total TIL cell number / CD8 TEM CD62L− CCR7−, percentage of total TIL cell number: TIL1 population, day 28
Procedure: as §1
T lymphocytes were defined based on lineage and differentiation marker expression according to the developmental model (Restifo, Blood, 124:476-477, 2014), as shown in Table 4.

[4] = 6000 IU IL-2 + 1 uM compound 103, 28 days, 24 well
[5] = Cbl inhibitor expanded, 4 hours restimulation

Which results are given for `C[C@@H]1CN(Cc2cc3c(c(C(F)(F)F)c2)CN(c2cccc(C4(Cc5nncn5C)COC4)c2)C3=O)CCC1(F)F` [compound 103]?
% CD4 T cells vs IL-2 alone [1, 4]: decrease in the % of CD4; CD8 T cells vs IL-2 alone [1, 4]: corresponding increase in CD8; Central memory T cells (CCR7+CD45RO+) among CD8 vs IL-2 alone ([1]; IL-2 + compound 103, 28 days, FIG. 24): significant increase of central memory T cells; CD8 T cell expansion (% and total numbers) ([1]; IL-2 + compound 103, GREX 10, 14 days): increased expansion of CD8 T cells; Expansion of TIL ([2]; Cbl inhibitor in the absence of IL-2): considerable expansion of TIL; Expansion of TIL, total cell number relative to IL-2 alone ([2]; TIL1 (ovary), 0.1 μM Cbl-i): 90%; Expansion of TIL, total cell number relative to IL-2 alone ([2]; TIL1 (ovary), 1.0 μM Cbl-i): 75%; Expansion of TIL, total cell number relative to IL-2 alone ([2]; TIL1 (ovary), 10 μM Cbl-i): 60%; Expansion of TIL, total cell number relative to IL-2 alone ([2]; TIL1 (ovary), IL-2 + 0.1 μM Cbl-i): 300%; Expansion of TIL, total cell number relative to IL-2 alone ([2]; TIL1 (ovary), IL-2 + 1.0 μM Cbl-i): 450%; Expansion of TIL, total cell number relative to IL-2 alone ([2]; TIL1 (ovary), IL-2 + 10 μM Cbl-i): 450%; Expansion of TIL, total cell number relative to IL-2 alone ([2]; TIL2 (ovary), 0.1 μM Cbl-i): 30%; Expansion of TIL, total cell number relative to IL-2 alone ([2]; TIL2 (ovary), 1.0 μM Cbl-i): 26%; Expansion of TIL, total cell number relative to IL-2 alone ([2]; TIL2 (ovary), 10 μM Cbl-i): 22%; Expansion of TIL, total cell number relative to IL-2 alone ([2]; TIL2 (ovary), IL-2 + 0.1 μM Cbl-i): 49%; Expansion of TIL, total cell number relative to IL-2 alone ([2]; TIL2 (ovary), IL-2 + 1.0 μM Cbl-i): 86%; Expansion of TIL, total cell number relative to IL-2 alone ([2]; TIL2 (ovary), IL-2 + 10 μM Cbl-i): 49%; Expansion of TIL, total cell number relative to IL-2 alone ([2]; TIL3 (ovary), 0.1 μM Cbl-i): 30%; Expansion of TIL, total cell number relative to IL-2 alone ([2]; TIL3 (ovary), 1.0 μM Cbl-i): 43%; Expansion of TIL, total cell number relative to IL-2 alone ([2]; TIL3 (ovary), 10 μM Cbl-i): 16%; Expansion of TIL, total cell number relative to IL-2 alone ([2]; TIL3 (ovary), IL-2 + 0.1 μM Cbl-i): 103%; Expansion of TIL, total cell number relative to IL-2 alone ([2]; TIL3 (ovary), IL-2 + 1.0 μM Cbl-i): 114%; Expansion of TIL, total cell number relative to IL-2 alone ([2]; TIL3 (ovary), IL-2 + 10 μM Cbl-i): 110%; Expansion of TIL, total cell number relative to IL-2 alone ([2]; TIL4 (colon), 0.1 μM Cbl-i): 45%; Expansion of TIL, total cell number relative to IL-2 alone ([2]; TIL4 (colon), 1.0 μM Cbl-i): 58%; Expansion of TIL, total cell number relative to IL-2 alone ([2]; TIL4 (colon), 10 μM Cbl-i): 54%; Expansion of TIL, total cell number relative to IL-2 alone ([2]; TIL4 (colon), IL-2 + 0.1 μM Cbl-i): 113%; Expansion of TIL, total cell number relative to IL-2 alone ([2]; TIL4 (colon), IL-2 + 1.0 μM Cbl-i): 197%; Expansion of TIL, total cell number relative to IL-2 alone ([2]; TIL4 (colon), IL-2 + 10 μM Cbl-i): 170%; Expansion of TIL, total cell number relative to IL-2 alone ([2]; TIL5 (ovary), 0.1 μM Cbl-i): 50%; Expansion of TIL, total cell number relative to IL-2 alone ([2]; TIL5 (ovary), 1.0 μM Cbl-i): 70%; Expansion of TIL, total cell number relative to IL-2 alone ([2]; TIL5 (ovary), 10 μM Cbl-i): 90%; Expansion of TIL, total cell number relative to IL-2 alone ([2]; TIL5 (ovary), IL-2 + 0.1 μM Cbl-i): 20%; Expansion of TIL, total cell number relative to IL-2 alone ([2]; TIL5 (ovary), IL-2 + 1.0 μM Cbl-i): 10%; Expansion of TIL, total cell number relative to IL-2 alone ([2]; TIL5 (ovary), IL-2 + 10 μM Cbl-i): 20%; Expansion of TIL, total cell number relative to IL-2 alone ([2]; TIL6 (ovary), 0.1 μM Cbl-i): 93%; Expansion of TIL, total cell number relative to IL-2 alone ([2]; TIL6 (ovary), 1.0 μM Cbl-i): 87%; Expansion of TIL, total cell number relative to IL-2 alone ([2]; TIL6 (ovary), 10 μM Cbl-i): 80%; Expansion of TIL, total cell number relative to IL-2 alone ([2]; TIL6 (ovary), IL-2 + 0.1 μM Cbl-i): 280%; Expansion of TIL, total cell number relative to IL-2 alone ([2]; TIL6 (ovary), IL-2 + 1.0 μM Cbl-i): 260%; Expansion of TIL, total cell number relative to IL-2 alone ([2]; TIL6 (ovary), IL-2 + 10 μM Cbl-i): 240%; Production of TIL vs IL-2 or Cbl inhibitor alone ([2]; both IL-2 and Cbl inhibitor, TIL1 and TIL4): substantially more TIL; Unique CDR3s (breast TIL): Unique CDR3s increased; Exhaustion markers (PD1 and TIM3) in multifunctional cells vs IL-2 alone (OT-1 cells; [5]): lower level of expression of exhaustion markers; Multifunctionality (IFN-gamma and TNF-alpha double positive cells) vs IL-2 alone (OT-1 cells; [5]): comparable multifunctionality; IL-2 production upon restimulation (OT-1 cells; Cbl inhibitor expanded, 24 hours restimulation): increased IL-2 production upon restimulation; Proliferation in response to peptide restimulation vs IL-2 alone (OT-1 cells; Cbl inhibitor expanded, splenocytes 11 days after transfer, 72 hours): superior intrinsic ability to proliferate; Proliferation in response to peptide restimulation (OT-1 cells; expanded with Cbl inhibitor and IL-2, 72 hours): even greater intrinsic ability to proliferate; CD4 TCM CD62L+ CCR7+, percentage of total TIL cell number ([3]; 0.1 μM Cbl-i): 2.8%; CD4 TEM CD62L− CCR7−, percentage of total TIL cell number ([3]; 0.1 μM Cbl-i): 67.2%; CD8 TCM CD62L+ CCR7−, percentage of total TIL cell number ([3]; 0.1 μM Cbl-i): 19.5%; CD8 TEM CD62L− CCR7−, percentage of total TIL cell number ([3]; 0.1 μM Cbl-i): 37.2%; CD4 TCM CD62L+ CCR7+, percentage of total TIL cell number ([3]; 1.0 μM Cbl-i): 8.0%; CD4 TEM CD62L− CCR7−, percentage of total TIL cell number ([3]; 1.0 μM Cbl-i): 24.2%; CD8 TCM CD62L+ CCR7−, percentage of total TIL cell number ([3]; 1.0 μM Cbl-i): 20.2%; CD8 TEM CD62L− CCR7−, percentage of total TIL cell number ([3]; 1.0 μM Cbl-i): 15.6%; CD4 TCM CD62L+ CCR7+, percentage of total TIL cell number ([3]; 10 μM Cbl-i): 15.8%; CD4 TEM CD62L− CCR7−, percentage of total TIL cell number ([3]; 10 μM Cbl-i): 66.7%; CD8 TCM CD62L+ CCR7−, percentage of total TIL cell number ([3]; 10 μM Cbl-i): 29.7%; CD8 TEM CD62L− CCR7−, percentage of total TIL cell number ([3]; 10 μM Cbl-i): 13.2%; CD4 TCM CD62L+ CCR7+, percentage of total TIL cell number ([3]; IL-2 + 0.1 μM Cbl-i): 12.1%; CD4 TEM CD62L− CCR7−, percentage of total TIL cell number ([3]; IL-2 + 0.1 μM Cbl-i): 49.3%; CD8 TCM CD62L+ CCR7−, percentage of total TIL cell number ([3]; IL-2 + 0.1 μM Cbl-i): 20.3%; CD8 TEM CD62L− CCR7−, percentage of total TIL cell number ([3]; IL-2 + 0.1 μM Cbl-i): 35.5%; CD4 TCM CD62L+ CCR7+, percentage of total TIL cell number ([3]; IL-2 + 1.0 μM Cbl-i): 15.2%; CD4 TEM CD62L− CCR7−, percentage of total TIL cell number ([3]; IL-2 + 1.0 μM Cbl-i): 57.3%; CD8 TCM CD62L+ CCR7−, percentage of total TIL cell number ([3]; IL-2 + 1.0 μM Cbl-i): 16.5%; CD8 TEM CD62L− CCR7−, percentage of total TIL cell number ([3]; IL-2 + 1.0 μM Cbl-i): 43.3%; CD4 TCM CD62L+ CCR7+, percentage of total TIL cell number ([3]; IL-2 + 10 μM Cbl-i): 0%; CD4 TEM CD62L− CCR7−, percentage of total TIL cell number ([3]; IL-2 + 10 μM Cbl-i): 55.8%; CD8 TCM CD62L+ CCR7−, percentage of total TIL cell number ([3]; IL-2 + 10 μM Cbl-i): 20.5%; CD8 TEM CD62L− CCR7−, percentage of total TIL cell number ([3]; IL-2 + 10 μM Cbl-i): 35.4%; Selective expansion of CD8+ T lymphocytes ([3]; malignant ovarian tumor sample, FIG. 7): selectively expand CD8+ T lymphocytes
